Values of other authors, collected in PubChem BioAssay AID1259409 (Chemical Carcinogenesis Research Information System (CCRIS), 2018).

System: rodent chemically induced tumor inhibition, incidence and multiplicity
Assay: CCRIS tumor inhibitor studies

Compound: Cn1c(=O)c2[nH]cnc2n(C)c1=O
- tumour outcome (control, treated, inhibition, significance) (Carcinogen: 1,2-DIMETHYLHYDRAZINE, 540-73-8, Dose [Inhibitor]: 0, 600 MG/L IN DRINKING WATER FOR DURATION OF STUDY BEGINNING 7 D PRIOR TO CARCINOGEN TREATMENT (STUDY DURATION: 8 MO), Route [Inhibitor]: ORAL, Species: RAT, Strain/Sex: BD6/MALE, Target Tissue: Type of Lesion: INTESTINE: TUMOR, Dose [Carcinogen]: 20 MG/KG BW 1/WK FOR 20 WK, Promoter: NONE USED): 100%, 100%, 0%, not significant
- tumour outcome (control, treated, inhibition, significance) (Carcinogen: 4-(METHYLNITROSAMINO)-1-(3-PYRIDLY)-1-BUTANONE [64091-91-4], Dose [Inhibitor]: 2.5 MG/KG BW 3X/WK FOR 31 WK BEGINNING 1 WK POST LAST CARCINOGEN DOSE (STUDY DURATION: 52 WK), Route [Inhibitor]: SUBCUTANEOUS, Species: HAMSTER, Strain/Sex: SYRIAN/MALE, Target Tissue: Type of Lesion: LUNG: TUMOR, Dose [Carcinogen]: 10 MG/KG BW 3X/WK FOR 20 WK (STUDY DURATION: 52 WK), Promoter: NONE): 12/15 (80.0%), 15/15 (100.0%), -25%, not calculated
- tumour outcome (control, treated, inhibition, significance) (Carcinogen: 4-(METHYLNITROSAMINO)-1-(3-PYRIDLY)-1-BUTANONE [64091-91-4], Dose [Inhibitor]: 2.5 MG/KG BW 3X/WK FOR 31 WK BEGINNING 1 WK POST LAST CARCINOGEN DOSE (STUDY DURATION: 52 WK), Route [Inhibitor]: SUBCUTANEOUS, Species: HAMSTER, Strain/Sex: SYRIAN/MALE, Target Tissue: Type of Lesion: NASAL CAVITY: TUMOR, Dose [Carcinogen]: 10 MG/KG BW 3X/WK FOR 20 WK (STUDY DURATION: 52 WK), Promoter: NONE): 4/15 (26.7%), 4/15 (26.7%), 0%, not calculated
- tumour outcome (control, treated, inhibition, significance) (Carcinogen: DIETHYLNITROSAMINE, 55-18-5, Dose [Inhibitor]: 0, 600 MG/L IN DRINKING WATER BEGINNING 3 D PRIOR TO FIRST CARCINOGEN DOSE AND CONTINUING TO 14 D POST LAST CARCINOGEN D, Route [Inhibitor]: ORAL, Species: RAT, Strain/Sex: BD6/FEMALE, Target Tissue: Type of Lesion: ESOPHAGUS: TUMOR, Dose [Carcinogen]: 80 MG/KG BW 1/WK FOR 8 WK, Promoter: NONE USED): 15%, 9%, 40%, not significant
- tumour outcome (control, treated, inhibition, significance) (Carcinogen: DIETHYLNITROSAMINE, 55-18-5, Dose [Inhibitor]: 0, 600 MG/L IN DRINKING WATER BEGINNING 3 D PRIOR TO FIRST CARCINOGEN DOSE AND CONTINUING TO 14 D POST LAST CARCINOGEN D, Route [Inhibitor]: ORAL, Species: RAT, Strain/Sex: BD6/FEMALE, Target Tissue: Type of Lesion: LIVER: TUMOR, Dose [Carcinogen]: 80 MG/KG BW 1/WK FOR 8 WK, Promoter: NONE USED): 90%, 97%, -8%, not significant
- tumour outcome (control, treated, inhibition, significance) (Carcinogen: DIETHYLNITROSAMINE, 55-18-5, Dose [Inhibitor]: 0, 600 MG/L IN DRINKING WATER FOR DURATION OF STUDY BEGINNING 4 D POST CARCINOGEN TREATMENT (STUDY DURATION: 6 MO), Route [Inhibitor]: ORAL, Species: RAT, Strain/Sex: BD6/FEMALE, Target Tissue: Type of Lesion: ESOPHAGUS: TUMOR, Dose [Carcinogen]: 80 MG/KG BW 1/WK FOR 8 WK, Promoter: NONE USED): 15%, 29%, -93%, not significant
- tumour outcome (control, treated, inhibition, significance) (Carcinogen: DIETHYLNITROSAMINE, 55-18-5, Dose [Inhibitor]: 0, 600 MG/L IN DRINKING WATER FOR DURATION OF STUDY BEGINNING 4 D POST CARCINOGEN TREATMENT (STUDY DURATION: 6 MO), Route [Inhibitor]: ORAL, Species: RAT, Strain/Sex: BD6/FEMALE, Target Tissue: Type of Lesion: LIVER: TUMOR, Dose [Carcinogen]: 80 MG/KG BW 1/WK FOR 8 WK, Promoter: NONE USED): 90%, 97%, -8%, not significant
- tumour outcome (control, treated, inhibition, significance) (Carcinogen: DIETHYLNITROSAMINE, 55-18-5, Dose [Inhibitor]: 0, 600 MG/L IN DRINKING WATER FOR DURATION OF STUDY BEGINNING 7 D PRIOR TO CARCINOGEN TREATMENT (STUDY DURATION: 6 MO), Route [Inhibitor]: ORAL, Species: RAT, Strain/Sex: BD6/FEMALE, Target Tissue: Type of Lesion: ESOPHAGUS: TUMOR, Dose [Carcinogen]: 80 MG/KG BW 1/WK FOR 8 WK, Promoter: NONE USED): 14%, 17%, -21%, not significant
- tumour outcome (control, treated, inhibition, significance) (Carcinogen: DIETHYLNITROSAMINE, 55-18-5, Dose [Inhibitor]: 0, 600 MG/L IN DRINKING WATER FOR DURATION OF STUDY BEGINNING 7 D PRIOR TO CARCINOGEN TREATMENT (STUDY DURATION: 6 MO), Route [Inhibitor]: ORAL, Species: RAT, Strain/Sex: BD6/FEMALE, Target Tissue: Type of Lesion: LIVER: TUMOR, Dose [Carcinogen]: 80 MG/KG BW 1/WK FOR 8 WK, Promoter: NONE USED): 100%, 90%, 10%, not significant
- tumour outcome (control, treated, inhibition, significance) (Carcinogen: N-ETHYL-N-NITROSOUREA, 759-73-9, Dose [Inhibitor]: 0, 1000 MG/KG IN DIET FOR 12 MO ADMINISTERED TO OFFSPRING OF CARCINOGEN-TREATED MOTHERS (STUDY DURATION: 12 MO), Route [Inhibitor]: ORAL, Species: RAT, Strain/Sex: ALBINO/MALE, FEMALE, Target Tissue: Type of Lesion: BRAIN: TUMOR, Dose [Carcinogen]: 75 MG/KG BW ADMINISTERED INTRAPERITONEALLY TO MOTHERS 21 D POST CONCEPTION, Promoter: NONE USED): 53/63 (84%), 21/41 (51%), 39%, p<0.05
- tumour outcome (control, treated, inhibition, significance) (Carcinogen: N-ETHYL-N-NITROSOUREA, 759-73-9, Dose [Inhibitor]: 0, 1000 MG/KG IN DIET FOR 12 MO ADMINISTERED TO OFFSPRING OF CARCINOGEN-TREATED MOTHERS (STUDY DURATION: 12 MO), Route [Inhibitor]: ORAL, Species: RAT, Strain/Sex: ALBINO/MALE, FEMALE, Target Tissue: Type of Lesion: KIDNEY: TUMOR, Dose [Carcinogen]: 75 MG/KG BW ADMINISTERED INTRAPERITONEALLY TO MOTHERS 21 D POST CONCEPTION, Promoter: NONE USED): 23/63 (37%), 6/41 (15%), 59%, p<0.05
- tumour outcome (control, treated, inhibition, significance) (Carcinogen: N-ETHYL-N-NITROSOUREA, 759-73-9, Dose [Inhibitor]: 0, 1000 MG/KG IN DIET FOR 12 MO ADMINISTERED TO OFFSPRING OF CARCINOGEN-TREATED MOTHERS (STUDY DURATION: 12 MO), Route [Inhibitor]: ORAL, Species: RAT, Strain/Sex: ALBINO/MALE, FEMALE, Target Tissue: Type of Lesion: PERIPHERAL NERVES: TUMOR, Dose [Carcinogen]: 75 MG/KG BW ADMINISTERED INTRAPERITONEALLY TO MOTHERS 21 D POST CONCEPTION, Promoter: NONE USED): 24/63 (38%), 5/41 (12%), 68%, p<0.05
- tumour outcome (control, treated, inhibition, significance) (Carcinogen: N-ETHYL-N-NITROSOUREA, 759-73-9, Dose [Inhibitor]: 0, 1000 MG/KG IN DIET FOR 12 MO ADMINISTERED TO OFFSPRING OF CARCINOGEN-TREATED MOTHERS (STUDY DURATION: 12 MO), Route [Inhibitor]: ORAL, Species: RAT, Strain/Sex: ALBINO/MALE, FEMALE, Target Tissue: Type of Lesion: SPINAL CHORD: TUMOR, Dose [Carcinogen]: 75 MG/KG BW ADMINISTERED INTRAPERITONEALLY TO MOTHERS 21 D POST CONCEPTION, Promoter: NONE USED): 17/63 (27%), 9/41 (22%), 19%, not significant
- tumour outcome (control, treated, inhibition, significance) (Carcinogen: URETHANE, 51-79-6, Dose [Inhibitor]: 0.05 UMOL/G BW GIVEN AT 6 HR INTERVALS DURING PERIOD OF 0 TO 36 HR AFTER CARCINOGEN TREATMENT FOLLOWED BY 5 MO OBSERVATI, Route [Inhibitor]: INTRAPERITONEAL, Species: MOUSE, Strain/Sex: ICR/FEMALE, Target Tissue: Type of Lesion: LUNG: PAPILLARY ADENOMA, Dose [Carcinogen]: 0.1 MG/G BW ONCE, Promoter: NONE USED): 31/59 (53%), 25/43 (58%), -9%, not significant
